Reference: US20160374967A1, “ORGANIC THIOPHOSPHATE ANTIRETROVIRAL AGENTS” (The Government of the U.S.A., as Represented by the …, priority 2006, published 2016)
Read-outs that look alike come from different tables or passages of the source.

How the values were obtained:
[1] = tested on: HIV; test: microbe, parasite or virus in culture; format: cell-based; settings: for duration of action (anti-HIV, cell culture): cysteamine re-added every 12 hours, WR-1065 added once in 72 hour period
[2] = tested on: HIV-1BZ-167; test: HIV-1 replication in PHA-blasts by p24 ELISA, dose-response and combinations; format: cell-based; settings: for IC50: n=3, read-out: 50% Inhibition of virus replication
[3] = tested on: PHA-blasts; settings: human, 72 h
[4] = mouse, in vivo; cited from earlier work
[5] = cited from earlier work
[6] = mice, cited from earlier work
[7] = in vivo; cited from earlier work
[8] = tested on: PHA blasts; test: Viability of PHA blasts exposed to WR-1065 (no HIV), 72 h; format: cell-based, human
[9] = tested on: TK6 cells; test: 14-day survival of TK6 cells in continuous presence of WR-1065; format: cell-based, human
[10] = tested on: HIV; format: cell-based; settings: human T-lymphocytes
[11] = tested on: adenovirus; test: Antiviral efficacy against adenovirus; settings: three different species of adenovirus
[12] = tested on: influenza
[13] = rhesus macaques, duodenal 150 mg/kg BW of amifostine or phosphonol, cited from earlier work
[14] = tested on: PHA-blasts; test: Cell survival (cytotoxicity) by trypan blue in HIV-1 infected PHA-blasts
[15] = metabolite after amifostine injection at 500-910 mg/m^2
[16] = metabolite after amifostine injection

## Cc1cn([C@H]2C[C@H](N=[N+]=[N-])[C@@H](CO)O2)c(=O)[nH]c1=O [AZT, Zidovudine, reference compound]
[1]; Experiment #1, 10 μM AZT, 72 h
  HIV Viral P24: 0.13 pg/mL
[1]; Experiment #2, 10 μM AZT, 72 h
  HIV Viral P24: 9.07 pg/mL
[1]; Experiment #3, 10 μM AZT, 72 h
  HIV Viral P24: 2.9 pg/mL
[1]; Human immunodeficiency virus 1, PBMC, 72 h, Experiment #1, 10 μM AZT, 72 h, read-out: Estimated percent inhibition
  inhibition at 10 µM: ~100%
[1]; Human immunodeficiency virus 1, PBMC, 72 h, Experiment #2, 10 μM AZT, 72 h, read-out: Estimated percent inhibition
  inhibition at 10 µM: 94.9%
[1]; Human immunodeficiency virus 1, PBMC, 72 h, Experiment #3, 10 μM AZT, 72 h, read-out: Estimated percent inhibition
  inhibition at 10 µM: ~100%
[2]; AZT 0.8, 3.0 and 5.0 μM
  inhibition of virus replication: 85-96%
[2]; AZT versus WR-1065
  dose for 50% reduction in HIV-1 replication, fold lower than that of WR-1065: about 1000 fold
[2]; Human immunodeficiency virus 1, 7.75 μM, alone, mean±SD, n=4
  inhibition at 7.75 µM: 96.7 ± 5.1%
[2]; Human immunodeficiency virus 1, dose-response 1.9-117.0 nM, mean±SE
  IC50: 0.0035 ± 0.0007 µM
[3]; 7.75 μM
  target cell survival: 54±15%

## NCCCNCCSP(=O)(O)O [Amifostine, S-2-(3-aminopropyl)aminoethyl phosphorothioic acid]
[2]; Human immunodeficiency virus 1, 50 μM amifostine (with alkaline phosphatase), mean±SE, n=4
  inhibition at 50 µM: 75.4 ± 8.3%
[3]; 50 μM
  cell survival: 53±10%
[4]
  100% effective radioprotective dose: about one half of the MTD
[5]; in vivo
  plasma T1/2: ~0.167 h
[6]; i.p.
  maximally tolerated dose (MTD): 432 mg/kg BW
[6]; p.o.
  maximally tolerated dose (MTD): 720 mg/kg BW
[7]
  effects of single doses of up to 2700 mg/m^2: no untoward effects

## NCCS [Cysteamine, reference compound]
[1]; 200 μM
  suppression of HIV replication: ~100%
[1]
  duration of action (anti-HIV, cell culture): very short

## NCCCNCCS [WR-1065, 2-(3-aminopropylamino)ethanethiol]
[1]
  in vitro anti-HIV potency relative to cysteamine: 2 fold
  duration of action (anti-HIV, cell culture): long duration of action
[1]; Experiment #1, 1000 μM
  HIV inhibition in human PBMCs (in words): inhibits HIV completely
[1]; Experiment #1, 1000 μM WR-1065, 72 h
  HIV Viral P24: 0.13 pg/mL
[1]; Experiment #1, 1000 μM WR-1065 with 10 μM AZT
  influence on the effect of 10 μM AZT: does not appear to alter
[1]; Experiment #2, 100 μM WR-1065, 72 h
  HIV Viral P24: 8.92 pg/mL
[1]; Experiment #2, 330 μM WR-1065, 72 h
  HIV Viral P24: 9.31 pg/mL
[1]; Experiment #2, 1000 μM WR-1065, 72 h
  HIV Viral P24: 8.92 pg/mL
[1]; Experiment #2, concentrations as low as 100 μM
  HIV infection inhibition in human PBMCs (in words): inhibit HIV infection completely
[1]; Experiment #3, 5 μM WR-1065, 72 h
  HIV Viral P24 pg/ml: 10,293.7 pg/ml
[1]; Experiment #3, 10 μM WR-1065, 72 h
  HIV Viral P24: 911.2 pg/mL
[1]; Experiment #3, 33 μM WR-1065, 72 h
  HIV Viral P24: 503.2 pg/mL
[1]; Experiment #3, 66 μM WR-1065, 72 h
  HIV Viral P24: 33.2 pg/mL
[1]; Human immunodeficiency virus 1, PBMC, 72 h, Experiment #1, 1000 μM WR-1065, 72 h, read-out: Estimated percent inhibition
  inhibition at 1000 µM: ~100%
[1]; Human immunodeficiency virus 1, PBMC, 72 h, Experiment #2, 100 μM WR-1065, 72 h, read-out: Estimated percent inhibition
  inhibition at 100 µM: 94.9%
[1]; Human immunodeficiency virus 1, PBMC, 72 h, Experiment #2, 330 μM WR-1065, 72 h, read-out: Estimated percent inhibition
  inhibition at 330 µM: 94.7%
[1]; Human immunodeficiency virus 1, PBMC, 72 h, Experiment #2, 1000 μM WR-1065, 72 h, read-out: Estimated percent inhibition
  inhibition at 1000 µM: 94.9%
[1]; Human immunodeficiency virus 1, PBMC, 72 h, Experiment #3, 5 μM WR-1065, 72 h, read-out: Estimated percent inhibition
  inhibition at 5 µM: 76.8%
[1]; Human immunodeficiency virus 1, PBMC, 72 h, Experiment #3, 10 μM WR-1065, 72 h, read-out: Estimated percent inhibition
  inhibition at 10 µM: 98%
[1]; Human immunodeficiency virus 1, PBMC, 72 h, Experiment #3, 33 μM WR-1065, 72 h, read-out: Estimated percent inhibition
  inhibition at 33 µM: 98.9%
[1]; Human immunodeficiency virus 1, PBMC, 72 h, Experiment #3, 66 μM WR-1065, 72 h, read-out: Estimated percent inhibition
  inhibition at 66 µM: 99.9%
[1]; concentration of less than 100 μM
  suppression of HIV replication: > 99.9%
[8]; 1 μM
  % Viable Cells (compared to control): 83%
[8]; 5 μM
  % Viable Cells (compared to control): 82%
[8]; 10 μM
  % Viable Cells (compared to control): 90%
[8]; 50 μM
  % Viable Cells (compared to control): 89%
[8]; 100 μM
  % Viable Cells (compared to control): 63%
[8]; 500 μM
  % Viable Cells (compared to control): 73%
[8]; 1000 μM
  % Viable Cells (compared to control): 30%
[2]; 103-206 μM WR-1065
  HIV-1 growth inhibition: ≥ 94%
[2]; Human immunodeficiency virus 1, 26 μM WR-1065, mean SE, n=5
  inhibition at 26 µM: 65 ± 7.5%
[2]; Human immunodeficiency virus 1, 50 μM WR-1065, n=5
  inhibition at 50 µM: 83.2 ± 18.6%
[2]; Human immunodeficiency virus 1, 52 μM WR-1065, n=7
  inhibition at 52 µM: 88.7 ± 5.5%
[2]; Human immunodeficiency virus 1, 100 μM WR-1065, n=5
  inhibition at 100 µM: 92 ± 11%
[2]; Human immunodeficiency virus 1, 103 μM WR-1065, n=8
  inhibition at 103 µM: 93.9 ± 3.1%
[2]; Human immunodeficiency virus 1, dose-response 2.5-103.0 μM, mean±SE
  IC50: 3.1 ± 0.6 µM
[2]; WR-1065 at 26 μM
  effect on antiretroviral activity of 0.8-3.0 μM AZT: did not inhibit
[9]; continuous 50-100 μM WR-1065
  14-day survival: < 20%
[9]; continuous 50-100 μM WR-1065, 10 mg/ml aminoguanidine added from day 4
  14-day survival: 70-80%
[10]
  intra-cellular concentration necessary to reduce HIV replication by ~100%: ~50 picomoles/10^6 cells
[11]
  antiviral efficacy: has antiviral efficacy
[12]
  antiviral efficacy: has antiviral efficacy
[13]; 1 h after administration
  Concentration (μg/ml), plasma: 6.21 µg/mL
[13]; 2 h after administration
  Concentration (μg/ml), plasma: 4.14 µg/mL
[13]; 6 h after administration
  Concentration (μg/ml), plasma: 2.07 µg/mL
[5]; [15]
  T1/2: ≥ 2 h
  peak plasma level: ~100 µM
[5]; [16]
  bioavailability: high
  tissue distribution: widespread
[14]; 26 μM WR-1065
  cell survival: 37%
[14]; 50 μM WR-1065
  cell survival: 55±22%
[14]; 52 μM WR-1065
  cell survival: 49%
[14]; 100 μM WR-1065
  cell survival: 42±18%
[14]; 103 μM WR-1065
  cell survival: 78%
